Assay results as given in patent US10611778B2, “Fused bicyclic inhibitors of menin-MLL interaction” (Janssen Pharmaceutica NV, priority 2016, dated 2020).
“And” between values parts separate entries of the source, which are not always exact repeats. Equal entries are not always repeated. Where two headings read alike, the source gives them in different places.

Assays:
MOLM14 = assay: Proliferation assay (spheroid assay) MOLM14; format: cell-based, human
Procedure, shortened: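 Cells were grown as spheroids in ultra-low attachment round-bottom wells with compound (0.3% DMSO) for 8 d at 37 °C, imaged every 4 h, with confluence as spheroid size. AUC of confluence versus time (t=0 baseline) was expressed as % of DMSO control, and absolute IC50 came from a least-squares nonlinear fit.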

[1] = biological target: T1, Menin/MLL (menin, FITC-MBM1 peptide) (Homo sapiens, UniProt O00255, T541A); assay: Menin/MLL fluorescence polarization (FP) assay; format: binding
T1 construct: 6xHis (C)
T1 sequence (O00255 with tags, fused parts or gaps T541A): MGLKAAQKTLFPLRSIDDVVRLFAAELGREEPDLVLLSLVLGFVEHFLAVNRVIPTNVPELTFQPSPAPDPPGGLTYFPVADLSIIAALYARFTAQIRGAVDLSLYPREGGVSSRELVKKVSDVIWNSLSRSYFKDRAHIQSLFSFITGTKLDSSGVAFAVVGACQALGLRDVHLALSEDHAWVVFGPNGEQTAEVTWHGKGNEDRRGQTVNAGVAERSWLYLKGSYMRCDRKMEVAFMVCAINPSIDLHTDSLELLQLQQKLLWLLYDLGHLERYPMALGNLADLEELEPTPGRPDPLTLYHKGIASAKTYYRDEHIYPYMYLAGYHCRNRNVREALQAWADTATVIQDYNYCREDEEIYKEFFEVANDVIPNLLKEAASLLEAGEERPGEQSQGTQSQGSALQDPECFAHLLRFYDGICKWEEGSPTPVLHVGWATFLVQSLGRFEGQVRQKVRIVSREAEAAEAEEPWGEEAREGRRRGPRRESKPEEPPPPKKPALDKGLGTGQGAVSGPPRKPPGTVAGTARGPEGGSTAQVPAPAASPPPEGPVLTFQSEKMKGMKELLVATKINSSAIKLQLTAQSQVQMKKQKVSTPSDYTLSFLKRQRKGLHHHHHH
Procedure, shortened: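 Compound pre-incubated 10 min with 100 nM menin (40 mM Tris-HCl pH 7.5, 50 mM NaCl, 1 mM DTT, 0.001% Tween 20), then 5 nM FITC-MBM1 peptide added for 15 min at ambient temperature; 0.625% DMSO final. FP read at ex 485/em 520 nm. IC50 from 11-point three-fold dilutions from 31 μM, % inhibition vs saturating-competitor controls.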

[2] = Homo sapiens, MOLM-14, MOLM14, averaged values over all measurements, read-out: Spheroid assay MOLM14 (IC50)
[3] = averaged values over all measurements, read-out: Menin FP assay (IC50)

IC50 (MOLM14; [2]) [µM] | IC50 [1, 3] [µM] | IC50 (MOLM14; MOLM14, 8 d, individual measurements (not averaged), read-out: (2) Spheroid assay MOLM14 (IC50 (μM))) | IC50 ([1]; individual measurements (not averaged), read-out: (1) Menin FP assay (IC50 (μM))) [µM] | SMILES
9.8 | 0.34 |  |  | FC(F)(F)Cc1cc2c(N3CCC4C3CCN4Cc3ccccc3)ncnc2s1 (centres unmarked) [Compound 2]
4.4 | 0.033 |  |  | FC(F)(F)Cc1cc2c(N3CCC4C(CCN4Cc4ccccc4)C3)ncnc2s1 (centres unmarked) [Compound 1]
3.3 | 0.21 |  |  | Fc1ccccc1CN1CC[C@H]2CN(c3ncnc4sc(CC(F)(F)F)cc34)CC[C@H]21 (single isomer, unassigned) [Compound 6]
 |  | 5.7 µM and > 15 µM | 0.101 | FC(F)(F)Cc1cc2c(N3CC[C@H]4[C@H](CCN4Cc4ccc[nH]4)C3)ncnc2s1 (single isomer, unassigned) [Compound 8]
